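Dose response: 5 concentrations. Exposure: 48 h. Format: 96-well plates. Endpoint: linear interpolation; highest concentration if not reached. GI50 is the concentration that inhibits growth by half. TGI is the concentration that stops growth completely.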
Experiments:
Assay in all cases: inhibition of tumour cell growth, NCI panel, 48 h
U251 CNS = test system: U251 CNS
SN12C renal = test system: SN12C renal
SW-620 colon = test system: SW-620 colon
MCF7 breast = test system: MCF7 breast
MALME-3M melanoma = test system: MALME-3M melanoma
SF-539 CNS = test system: SF-539 CNS
UACC-62 melanoma = test system: UACC-62 melanoma
RXF 393 renal = test system: RXF 393 renal
MDA-MB-435 = test system: MDA-MB-435
HCT-116 colon = test system: HCT-116 colon
SNB-19 CNS = test system: SNB-19 CNS
KM12 colon = test system: KM12 colon
NCI/ADR-RES ovarian = test system: NCI/ADR-RES ovarian
ACHN renal = test system: ACHN renal
TK-10 renal = test system: TK-10 renal
MOLT-4 leukemia = test system: MOLT-4 leukemia
SR leukemia = test system: SR leukemia
A498 renal = test system: A498 renal
T-47D breast = test system: T-47D breast
SNB-75 CNS = test system: SNB-75 CNS
OVCAR-5 ovarian = test system: OVCAR-5 ovarian
RPMI-8226 leukemia = test system: RPMI-8226 leukemia
SF-268 CNS = test system: SF-268 CNS
LOX IMVI melanoma = test system: LOX IMVI melanoma
HCC-2998 colon = test system: HCC-2998 colon
DU-145 prostate = test system: DU-145 prostate
A549 NSCLC = test system: A549 NSCLC
OVCAR-4 ovarian = test system: OVCAR-4 ovarian
M14 melanoma = test system: M14 melanoma
HOP-92 NSCLC = test system: HOP-92 NSCLC
COLO 205 colon = test system: COLO 205 colon
HL-60(TB) leukemia = test system: HL-60(TB) leukemia
SF-295 CNS = test system: SF-295 CNS
NCI-H23 lung = test system: NCI-H23 lung
NCI-H460 lung = test system: NCI-H460 lung
HS 578T breast = test system: HS 578T breast
786-0 renal = test system: 786-0 renal
OVCAR-8 ovarian = test system: OVCAR-8 ovarian
IGROV1 ovarian = test system: IGROV1 ovarian
EKVX NSCLC = test system: EKVX NSCLC
CCRF-CEM leukemia = test system: CCRF-CEM leukemia
HT29 colon = test system: HT29 colon
HOP-62 NSCLC = test system: HOP-62 NSCLC
SK-MEL-28 melanoma = test system: SK-MEL-28 melanoma
UACC-257 melanoma = test system: UACC-257 melanoma
K-562 leukemia = test system: K-562 leukemia
NCI-H226 lung = test system: NCI-H226 lung
MDA-MB-231 breast = test system: MDA-MB-231 breast
SK-OV-3 ovarian = test system: SK-OV-3 ovarian
HCT-15 colon = test system: HCT-15 colon
UO-31 renal = test system: UO-31 renal
OVCAR-3 ovarian = test system: OVCAR-3 ovarian
SK-MEL-5 melanoma = test system: SK-MEL-5 melanoma
SK-MEL-2 melanoma = test system: SK-MEL-2 melanoma
PC-3 prostate = test system: PC-3 prostate
NCI-H522 lung = test system: NCI-H522 lung

CC(C)=CCC12Cc3ccc(O)cc3C(C(C)CN1)C2C (configuration not stated)
TGI (U251 CNS): > 100 µM | TGI (SN12C renal): > 100 µM | TGI (SW-620 colon): > 100 µM | TGI (MCF7 breast): > 100 µM | TGI (MALME-3M melanoma): > 100 µM | TGI (SF-539 CNS): > 100 µM | TGI (UACC-62 melanoma): > 100 µM | TGI (RXF 393 renal): > 100 µM | TGI (MDA-MB-435): > 100 µM | TGI (HCT-116 colon): > 100 µM | TGI (SNB-19 CNS): > 100 µM | TGI (KM12 colon): > 100 µM | TGI (NCI/ADR-RES ovarian): > 100 µM | TGI (ACHN renal): > 100 µM | TGI (TK-10 renal): > 100 µM | TGI (MOLT-4 leukemia): > 100 µM | TGI (SR leukemia): > 100 µM | TGI (A498 renal): > 100 µM | TGI (T-47D breast): > 100 µM | TGI (SNB-75 CNS): > 100 µM | TGI (OVCAR-5 ovarian): > 100 µM | TGI (RPMI-8226 leukemia): > 100 µM | TGI (SF-268 CNS): > 100 µM | TGI (LOX IMVI melanoma): > 100 µM | TGI (HCC-2998 colon): 48.2 µM | TGI (DU-145 prostate): > 100 µM | TGI (A549 NSCLC): > 100 µM | TGI (OVCAR-4 ovarian): > 100 µM | TGI (M14 melanoma): 51.5 µM | TGI (HOP-92 NSCLC): > 100 µM | TGI (COLO 205 colon): > 100 µM | TGI (HL-60(TB) leukemia): > 100 µM | TGI (SF-295 CNS): > 100 µM | TGI (NCI-H23 lung): > 100 µM | TGI (NCI-H460 lung): > 100 µM | TGI (HS 578T breast): > 100 µM | TGI (786-0 renal): > 100 µM | TGI (OVCAR-8 ovarian): > 100 µM | TGI (IGROV1 ovarian): > 100 µM | TGI (EKVX NSCLC): > 100 µM | TGI (CCRF-CEM leukemia): > 100 µM | TGI (HT29 colon): > 100 µM | TGI (HOP-62 NSCLC): > 100 µM | TGI (SK-MEL-28 melanoma): > 100 µM | TGI (UACC-257 melanoma): > 100 µM | TGI (K-562 leukemia): > 100 µM | TGI (NCI-H226 lung): > 100 µM | TGI (MDA-MB-231 breast): > 100 µM | TGI (SK-OV-3 ovarian): > 100 µM | TGI (HCT-15 colon): > 100 µM | TGI (UO-31 renal): > 100 µM

CC[C@H](C)[C@H](NC(=O)c1cnccn1)C(=O)N(C)[C@H](C[C@@H](OC(C)=O)c1nc(C(=O)N[C@@H](Cc2ccccc2)C[C@H](C)C(=O)OC)cs1)C(C)C
GI50 (U251 CNS): 1.18 µM | TGI (U251 CNS): > 33.3 µM | GI50 (SN12C renal): 2.22 µM | TGI (SN12C renal): > 33.3 µM | GI50 (SW-620 colon): 1.28 µM | TGI (SW-620 colon): > 33.3 µM | GI50 (MCF7 breast): 0.0909 µM | TGI (MCF7 breast): > 33.3 µM | GI50 (MALME-3M melanoma): 3.3 µM | TGI (MALME-3M melanoma): > 33.3 µM | GI50 (SF-539 CNS): 0.779 µM | TGI (SF-539 CNS): 2.09 µM | GI50 (UACC-62 melanoma): 0.105 µM | TGI (UACC-62 melanoma): > 33.3 µM | GI50 (HCT-116 colon): 1.19 µM | TGI (HCT-116 colon): > 33.3 µM | GI50 (OVCAR-3 ovarian): 0.665 µM | TGI (OVCAR-3 ovarian): 1.62 µM | GI50 (SNB-19 CNS): 1.42 µM | TGI (SNB-19 CNS): > 33.3 µM | GI50 (KM12 colon): 0.107 µM | TGI (KM12 colon): > 33.3 µM | GI50 (NCI/ADR-RES ovarian): 2.81 µM | TGI (NCI/ADR-RES ovarian): > 33.3 µM | GI50 (ACHN renal): 2.69 µM | TGI (ACHN renal): > 33.3 µM | GI50 (SK-MEL-5 melanoma): 0.809 µM | TGI (SK-MEL-5 melanoma): 2.87 µM | GI50 (TK-10 renal): 7.18 µM | TGI (TK-10 renal): > 33.3 µM | GI50 (MOLT-4 leukemia): 2.23 µM | TGI (MOLT-4 leukemia): > 33.3 µM | GI50 (SK-MEL-2 melanoma): 0.827 µM | TGI (SK-MEL-2 melanoma): > 33.3 µM | GI50 (SR leukemia): 0.048 µM | TGI (SR leukemia): > 33.3 µM | GI50 (A498 renal): 0.907 µM | TGI (A498 renal): 3.15 µM | GI50 (T-47D breast): 2.48 µM | TGI (T-47D breast): > 33.3 µM | GI50 (OVCAR-5 ovarian): 3.71 µM | TGI (OVCAR-5 ovarian): > 33.3 µM | GI50 (RPMI-8226 leukemia): 1.07 µM | TGI (RPMI-8226 leukemia): > 33.3 µM | GI50 (PC-3 prostate): 1.36 µM | TGI (PC-3 prostate): > 33.3 µM | GI50 (SF-268 CNS): 1.66 µM | TGI (SF-268 CNS): > 33.3 µM | GI50 (LOX IMVI melanoma): 1.63 µM | TGI (LOX IMVI melanoma): > 33.3 µM | GI50 (HCC-2998 colon): 1.35 µM | TGI (HCC-2998 colon): > 33.3 µM | GI50 (DU-145 prostate): 1.23 µM | TGI (DU-145 prostate): > 33.3 µM | GI50 (A549 NSCLC): 3.22 µM | TGI (A549 NSCLC): > 33.3 µM | GI50 (OVCAR-4 ovarian): 2.52 µM | TGI (OVCAR-4 ovarian): > 33.3 µM | GI50 (M14 melanoma): 0.81 µM | TGI (M14 melanoma): 2.76 µM | GI50 (HOP-92 NSCLC): 0.416 µM | TGI (HOP-92 NSCLC): 11.4 µM | GI50 (COLO 205 colon): 1.17 µM | TGI (COLO 205 colon): 4.1 µM | GI50 (HL-60(TB) leukemia): 0.9 µM | TGI (HL-60(TB) leukemia): 2.24 µM | GI50 (SF-295 CNS): 1.03 µM | TGI (SF-295 CNS): > 33.3 µM | GI50 (NCI-H23 lung): 1.69 µM | TGI (NCI-H23 lung): > 33.3 µM | GI50 (NCI-H460 lung): 1.15 µM | TGI (NCI-H460 lung): > 33.3 µM | GI50 (HS 578T breast): 0.941 µM | TGI (HS 578T breast): 10.6 µM | GI50 (786-0 renal): 1.71 µM | TGI (786-0 renal): > 21.9 µM | GI50 (OVCAR-8 ovarian): 1.68 µM | TGI (OVCAR-8 ovarian): > 33.3 µM | GI50 (IGROV1 ovarian): 1.04 µM | TGI (IGROV1 ovarian): > 33.3 µM | GI50 (EKVX NSCLC): 1.75 µM | TGI (EKVX NSCLC): > 33.3 µM | GI50 (CCRF-CEM leukemia): 1.15 µM | TGI (CCRF-CEM leukemia): > 33.3 µM | GI50 (HT29 colon): 1.06 µM | TGI (HT29 colon): 6.75 µM | GI50 (HOP-62 NSCLC): 1.88 µM | TGI (HOP-62 NSCLC): > 33.3 µM | GI50 (SK-MEL-28 melanoma): 2.37 µM | TGI (SK-MEL-28 melanoma): > 33.3 µM | GI50 (UACC-257 melanoma): 5.21 µM | TGI (UACC-257 melanoma): 22.1 µM | GI50 (K-562 leukemia): 0.662 µM | TGI (K-562 leukemia): > 33.3 µM | GI50 (NCI-H226 lung): 4.74 µM | TGI (NCI-H226 lung): > 33.3 µM | GI50 (MDA-MB-231 breast): 1.39 µM | TGI (MDA-MB-231 breast): 19.6 µM | GI50 (SK-OV-3 ovarian): 1.95 µM | TGI (SK-OV-3 ovarian): > 33.3 µM | GI50 (NCI-H522 lung): 0.0552 µM | TGI (NCI-H522 lung): 2.49 µM | GI50 (HCT-15 colon): 1.06 µM | TGI (HCT-15 colon): > 33.3 µM | GI50 (UO-31 renal): 2.23 µM | TGI (UO-31 renal): > 33.3 µM

From PubChem BioAssay (NCI)
